Data on 11 compounds can be found in patent US12577231B2, “Androgen receptor PROTACS” (GlaxoSmithKline Intellectual Property Development Limited, priority 2023, dated 2026).

A value given as a limit tells only on which side of the number the result lay.

The first experiment deals with T1, Androgen Receptor, LNCaP (AR T878A) (Homo sapiens, UniProt P10275, T878A).
T1 construct: endogenous in cells; host or cells: LNCaP
T1 sequence (P10275 1-920 T878A): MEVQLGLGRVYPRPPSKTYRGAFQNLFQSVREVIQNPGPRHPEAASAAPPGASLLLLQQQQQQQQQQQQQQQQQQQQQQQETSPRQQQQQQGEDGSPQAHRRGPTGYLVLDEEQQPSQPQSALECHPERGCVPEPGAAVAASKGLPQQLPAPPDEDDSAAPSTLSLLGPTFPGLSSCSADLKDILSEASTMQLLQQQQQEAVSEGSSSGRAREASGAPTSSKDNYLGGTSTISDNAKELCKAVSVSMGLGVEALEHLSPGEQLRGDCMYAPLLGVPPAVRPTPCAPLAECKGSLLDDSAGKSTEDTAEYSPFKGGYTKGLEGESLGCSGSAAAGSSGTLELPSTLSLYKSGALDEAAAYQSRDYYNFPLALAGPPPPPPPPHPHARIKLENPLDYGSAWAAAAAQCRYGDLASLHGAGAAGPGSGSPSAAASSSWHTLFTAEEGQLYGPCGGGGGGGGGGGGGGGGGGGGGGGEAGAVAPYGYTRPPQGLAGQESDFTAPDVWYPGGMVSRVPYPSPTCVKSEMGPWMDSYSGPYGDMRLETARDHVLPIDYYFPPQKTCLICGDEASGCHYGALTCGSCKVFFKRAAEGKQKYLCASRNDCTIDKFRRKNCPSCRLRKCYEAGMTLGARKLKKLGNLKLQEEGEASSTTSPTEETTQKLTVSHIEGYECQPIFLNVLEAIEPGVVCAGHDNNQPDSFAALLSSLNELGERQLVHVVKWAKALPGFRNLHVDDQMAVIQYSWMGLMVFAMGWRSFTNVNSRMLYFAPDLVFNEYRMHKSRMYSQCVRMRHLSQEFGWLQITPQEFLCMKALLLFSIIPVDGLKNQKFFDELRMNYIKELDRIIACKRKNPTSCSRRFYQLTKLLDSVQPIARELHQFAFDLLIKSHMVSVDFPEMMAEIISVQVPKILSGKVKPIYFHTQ
The experiment is described as follows: Androgen Receptor Degradation-Imaging Assay, LNCaP cell line. It is filed as cell-based. The conditions noted are these: 16 hours treatment, maximum observed degradation. On the procedure:
Degradation of Androgen Receptor (AR) protein in human prostate cancer cell lines (MDA-PCa-2b (AR T878A/L702H), LNCaP (AR T878A), VCaP (AR wild type and amplified) 22RV1 (AR H875Y) and PC3 (AR negative control)) treated with AR PROTACs was quantified using immunofluorescence. Prostate cancer cells were plated (MDA-PCa-2b, and VCaP 16,000 cells/well; LNCaP and 22RV1 32,000 cells/well, and PC3 8,000 cells/well) in an optical bottom 96-well cell culture plate and allowed to attach overnight. The prostate cancer cell lines were treated for 16 hours with a 10-point 3-fold dilution series (dose range=0.02 nM to 333 nM). PC3 is included as an AR negative control and not treated with compound. Cells are fixed and permeabilized with 4% formaldehyde, blocked with 10% goat serum in immunofluorescence (IF) buffer (130 mM NaCl, 7 mM Na2HPO4, 3.5 mM NaH2PO4, 7.7 mM NaN3, 0.1% BSA, 0.2% Triton X, 0.05% Tween 20) prior to overnight incubation with rabbit antibody specific for C terminus of AR (commercially available from RevMaB Biosciences). Following washes with IF buffer, cells were incubated with fluorescent secondary antibody (Goat anti-rabbit Alexa 647; commercially available from Invitrogen) and Hoechst nuclear stain (commercially available from Themo Scientific) prior to quantification of nuclear AR levels via Opera Phenix high-content fluorescent imager using a 40× water objective. Image analysis was performed with Harmony software.
The averaged nuclear Alexa 647 median fluorescence intensity (MFI) of PC3 cells is subtracted from the nuclear Alexa 647 MFI of PROTAC treated and DMSO control treated cells. % AR remaining is calculated for PROTAC treatments as a percent of the DMSO control (MFI PROTAC treated/MFI DMSO control treated)*100). DC50 and the Dmax values, were obtained from these normalised values fitted with a 4-parameter sigmoidal response curve (Xlfit software). The DC50 is the interpolated concentration of PROTAC corresponding to 50% of the protein being degraded, and the Dmax parameter is the maximum experimentally observed degradation.
In the case of `CC1(C)[C@H](NC(=O)c2ccc(N3CCC(O)(CN4CCC(n5ncc6c(N7CCC(=O)NC7=O)cccc65)CC4)CC3)c(F)c2)C(C)(C)[C@H]1Oc1ccc(C#N)c2ncccc12` [Example 48, N-((1r,3r)-3-((8-Cyanoquinolin-5-yl)oxy)-2,2,4,4-tetramethylcyclobutyl)-4-(4-((4-(4-(2,4-dioxotetrahydropyrimidin-1(2H)-yl)-1H-indazol-1-yl)piperidin-1-yl)methyl)-4-hydroxypiperidin-1-yl)-3-fluorobenzamide], the Dmax (commonly the largest share of the target that was removed) was at least 80%.

In turn, `CC1(C)[C@H](NC(=O)c2ccc(N3CCC(CN4CCC(n5ncc6c(N7CCC(=O)NC7=O)cccc65)CC4)CC3)c(F)c2)C(C)(C)[C@H]1Oc1ccc(C#N)c2c1CCCO2` [Example 8, N-((1r,3r)-3-((8-Cyanochroman-5-yl)oxy)-2,2,4,4-tetramethylcyclobutyl)-4-(4-((4-(4-(2,4-dioxotetrahydropyrimidin-1(2H)-yl)-1H-indazol-1-yl)piperidin-1-yl)methyl)piperidin-1-yl)-3-fluorobenzamide] returned a Dmax of at least 80%. Compound `CC1(C)[C@H](NC(=O)c2ccc(N3CCC(CN4CCC(n5ncc6c(N7CCC(=O)NC7=O)cccc65)CC4)CC3)c(F)c2)C(C)(C)[C@H]1Oc1ccc(C#N)c2ncccc12` [Example 6, N-((1r,3r)-3-((8-Cyanoquinolin-5-yl)oxy)-2,2,4,4-tetramethylcyclobutyl)-4-(4-((4-(4-(2,4-dioxotetrahydropyrimidin-1(2H)-yl)-1H-indazol-1-yl)piperidin-1-yl)methyl)piperidin-1-yl)-3-fluorobenzamide] had a Dmax of at least 80%. Consider `COc1cc(O[C@H]2C(C)(C)[C@H](NC(=O)c3ccc(N4CCC(CN5CCC(n6ncc7c(N8CCC(=O)NC8=O)cccc76)CC5)CC4)cc3)C2(C)C)ccc1C#N` [Example 15, N-((1r,3r)-3-(4-Cyano-3-methoxyphenoxy)-2,2,4,4-tetramethylcyclobutyl)-4-(4-((4-(4-(2,4-dioxotetrahydropyrimidin-1(2H)-yl)-1H-indazol-1-yl)piperidin-1-yl)methyl)piperidin-1-yl)benzamide], for which the Dmax is at least 80%. On the same count and under the same terms, under `COc1cc(O[C@H]2C(C)(C)[C@H](NC(=O)c3ccc(N4CCC(CN5CCC(n6ncc7c(N8CCC(=O)NC8=O)nccc76)CC5)CC4)c(F)c3)C2(C)C)ccc1C#N` [Example 20, N-((1r,3r)-3-(4-Cyano-3-methoxyphenoxy)-2,2,4,4-tetramethylcyclobutyl)-4-(4-((4-(4-(2,4-dioxotetrahydropyrimidin-1(2H)-yl)-1H-pyrazolo[4,3-c]pyridin-1-yl)piperidin-1-yl)methyl)piperidin-1-yl)-3-fluorobenzamide] stands at least 80%. On the same count and under the same terms, under `CC1(C)[C@H](NC(=O)c2ccc(N3CCC(CN4CCC(n5ccc6c(N7CCC(=O)NC7=O)ncnc65)CC4)CC3)cc2)C(C)(C)[C@H]1Oc1ccc(C#N)c2ncccc12` [Example 28, N-((1r,3r)-3-((8-Cyanoquinolin-5-yl)oxy)-2,2,4,4-tetramethylcyclobutyl)-4-(4-((4-(4-(2,4-dioxotetrahydropyrimidin-1(2H)-yl)-7H-pyrrolo[2,3-d]pyrimidin-7-yl)piperidin-1-yl)methyl)piperidin-1-yl)benzamide] stands at least 80%. On the same count and under the same terms, under `COc1cc(O[C@H]2C(C)(C)[C@H](NC(=O)c3ccc(N4CCC(CN5CCC(n6ccc7c(N8CCC(=O)NC8=O)cccc76)CC5)CC4)cc3)C2(C)C)ccc1C#N` [Example 16, N-((1r,3r)-3-(4-Cyano-3-methoxyphenoxy)-2,2,4,4-tetramethylcyclobutyl)-4-(4-((4-(4-(2,4-dioxotetrahydropyrimidin-1(2H)-yl)-1H-indol-1-yl)piperidin-1-yl)methyl)piperidin-1-yl)benzamide] stands at least 80%; under `CC1(C)[C@H](NC(=O)c2cc(F)c(N3CCC(CN4CCC(n5ncc6c(N7CCC(=O)NC7=O)cccc65)CC4)CC3)c(F)c2)C(C)(C)[C@H]1Oc1ccc(C#N)c2ncccc12` [Example 30, N-((1r,3r)-3-((8-Cyanoquinolin-5-yl)oxy)-2,2,4,4-tetramethylcyclobutyl)-4-(4-((4-(4-(2,4-dioxotetrahydropyrimidin-1(2H)-yl)-1H-indazol-1-yl)piperidin-1-yl)methyl)piperidin-1-yl)-3,5-difluorobenzamide], at least 80%; under `CC1(C)[C@H](NC(=O)c2ccc(N3CCC(CN4CCC(n5ccc6c(N7CCC(=O)NC7=O)ncnc65)CC4)CC3)c(F)c2)C(C)(C)[C@H]1Oc1ccc(C#N)c2ncccc12` [Example 47, N-((1r,3r)-3-((8-Cyanoquinolin-5-yl)oxy)-2,2,4,4-tetramethylcyclobutyl)-4-(4-((4-(4-(2,4-dioxotetrahydropyrimidin-1(2H)-yl)-7H-pyrrolo[2,3-d]pyrimidin-7-yl)piperidin-1-yl)methyl)piperidin-1-yl)-3-fluorobenzamide], at least 80%. `CC1(C)[C@H](NC(=O)c2ccc(N3CCC(CN4CCC(n5ncc6c(N7CCC(=O)NC7=O)nccc65)CC4)CC3)c(F)c2)C(C)(C)[C@H]1Oc1ccc(C#N)c2ncccc12` [Example 39, N-((1r,3r)-3-((8-Cyanoquinolin-5-yl)oxy)-2,2,4,4-tetramethylcyclobutyl)-4-(4-((4-(4-(2,4-dioxotetrahydropyrimidin-1(2H)-yl)-1H-pyrazolo[4,3-c]pyridin-1-yl)piperidin-1-yl)methyl)piperidin-1-yl)-3-fluorobenzamide] gave a Dmax of at least 80%. On the same count and under the same terms, under `CC1(C)[C@H](NC(=O)c2ccc(N3CCC(CN4CCC(n5ccc6c(N7CCC(=O)NC7=O)cc(F)cc65)CC4)CC3)c(F)c2)C(C)(C)[C@H]1Oc1ccc(C#N)c2ncccc12` [Example 32, N-((1r,3r)-3-((8-Cyanoquinolin-5-yl)oxy)-2,2,4,4-tetramethylcyclobutyl)-4-(4-((4-(4-(2,4-dioxotetrahydropyrimidin-1(2H)-yl)-6-fluoro-1H-indol-1-yl)piperidin-1-yl)methyl)piperidin-1-yl)-3-fluorobenzamide] stands at least 80%.

The next experiment deals with T2, Androgen receptor T878A (Homo sapiens, UniProt P10275, T878A).
T2 construct: expressed in transfected cells; host or cells: A549, transduced, puromycin selected
T2 sequence (P10275 1-920 T878A): T1 sequence (P10275 1-920 T878A)
The experiment is described as follows: Degradation of overexpressed Androgen Receptor in A549 cells (HiBiT), T878A. It is filed as cell-based. The conditions noted are these: A549 cells overexpressing AR T878A, cycloheximide, 24 hours. On the procedure: A549 cells were transduced to express wild type androgen receptor and Androgen receptor containing the following mutations (L702H, H875Y W742C W742L F877L, T878A and T878A/H875Y) with HiBiT tags. Transduced cells following puromycin selection were maintained in a humidified incubator (at 37° C. and 5% CO2 in the DMEM medium supplemented with 1% (v/v) Pen/Strep, 1% (v/v) Glutamax and 10% (v/v) FBS. A549 cells expressing each AR construct were detached from plate and counted. Cell suspensions at density 0.2 million per mL were prepared. Cell suspension was supplemented with 100 μg/mL of cycloheximide to block protein synthesis. Cells were preincubated with cycloheximide for 1 hr before seeding. Cells were seeded onto 384-well plate at density of 5,000 in 25 μL per well. A two fold serial dilution of test compounds, starting from 1 μM (row A) in 2-fold serial dilution series across the column using Tecan D300e dispenser. […]
Nano-Glo HiBiT Lytic reagent was prepared by adding LgBiT protein and Nano-Glo® substrate to lytic buffer pre-equilibrated at room temperature following manufacturer protocol (https://www.promega.co.uk/resources/protocols/technical-manuals/101/nanoglo-luciferase-assay-system-protocol). […] The plates were then centrifuged (100×G, 1 min) and incubated on shaker for 10 mins before taking readings on Pherastar Luminescence microplate reader. […]
A general note: HiBiT is a short tag that completes a luciferase, so light tracks the accessible tagged protein.
As for `COc1cc(O[C@H]2C(C)(C)[C@H](NC(=O)c3ccc(N4CCC(CN5CCC(n6ncc7c(N8CCC(=O)NC8=O)nccc76)CC5)CC4)c(F)c3)C2(C)C)ccc1C#N` [Example 20, N-((1r,3r)-3-(4-Cyano-3-methoxyphenoxy)-2,2,4,4-tetramethylcyclobutyl)-4-(4-((4-(4-(2,4-dioxotetrahydropyrimidin-1(2H)-yl)-1H-pyrazolo[4,3-c]pyridin-1-yl)piperidin-1-yl)methyl)piperidin-1-yl)-3-fluorobenzamide], the “Summary pXC50” value is given as 8.81.
